Test results from a melting point compilation (Tetko et al.; mined from patent text by program, amines drawn as free bases though some values may be those of a salt).
Non-standard residues stand in square brackets, D forms with d. Residues, ends and D or L forms follow the SMILES beside them. *: point of attachment. 1Nal = N[C@@H](Cc1cccc2ccccc12)C(=O)O; Sta = CC(C)C[C@H](N)[C@@H](O)CC(=O)O; Cbz = O=C(OCc1ccccc1)*; NHNH2 = NN*

| melting point [°C] | SMILES |
| --- | --- |
| 71 to 74 | CCCCCCCCSc1ccc(CC(COC(C)=O)(COC(C)=O)NC(C)=O)cc1 |
| 85 to 87 | O=c1n(CCCCN2CCN(c3ccccc3)CC2)nc2n1-c1ccccc1OC2 |
| 120 to 121 | CC(C)c1nc(COCc2ccccc2)n(CC2CC2)c1Sc1cc(Cl)cc(Cl)c1 |
| 204 to 207 | Cc1ccc(-c2nc(-c3ccc(O)cc3O)nc(-c3ccc(O)cc3O)n2)c(C)c1 |
| 144 to 145 | CCOC(=O)C(=CNc1nnc(-c2cccnc2)s1)C(=O)OCC |
| 209 to 211 | O=C1NC(=O)C2(CC(O)c3ccc(F)cc32)N1 (stereo unspecified) |
| 187 to 188 | Clc1cc(Cl)c2cccc3c2c1N=C3NCCCCn1ccnc1 |
| 112 to 114 | CCOC(=O)/C=C/c1ccc(Cn2ccnc2)c(Cl)c1 |
| 65 to 67 | CC1(C)Oc2cccnc2C2OC21 (stereo unspecified) |
| 125 to 127 | COc1ccc(CN2CCC(c3cn(Cc4ccc(Cl)s4)c4cnccc34)CC2)cc1C(=O)O |
| 39 to 42 | COc1cccc(SCCC(=O)O)c1 |
| 145 to 146 | COc1ccc([C@@H]2CN(C)CC[C@@H]2NC(=O)c2ccc(C)cc2)cc1OC (relative stereo) |
| 101 to 105 | CN(C)[C@H]1CCN(C(=O)c2ccc(Cc3cn(C)c4ccccc34)cc2)C1 |
| 250 | O=C(O)c1ccc(S(=O)(=O)Cc2c(O[C@H](Cn3ccnc3)c3ccccc3)ccc3c2CCCC3=O)cc1 |
| 172 to 173 | CCC(CC)(OC)c1ccc(Cl)c2nc3n(c12)CCCN3c1ccc(Cl)cc1C(F)(F)F |
| 160 | O=Cc1ccc2c(c1)COC2=O |
| 204 to 213 | O=C(O)c1ccc(Cl)cc1Sc1ccc(F)cc1 |
| 194 | CNC(=S)C1(c2cccnc2)OCCCS1 (stereo unspecified) |
| 105 | Nc1ccc(I)cc1C=O |
| 256 to 257 | COc1c(-c2ccc3cc(NS(C)(=O)=O)ccc3c2)cc(-n2ccc(=O)[nH]c2=O)cc1C(C)(C)CO |
| 101 | COC(=O)C1=C(Nc2ccccc2N)CSC1 |
| 151 to 153 | CC(C)(C#N)c1cc(CO)cc(C(C)(C)C#N)c1 |
| > 260 | COc1cc(OS(C)(=O)=O)ccc1C1=NC2=NCC(=O)NC2=N1 |

| melting point [°C] | SMILES |
| --- | --- |
| > 215 | COc1cc2c(cc1C(F)(F)F)N(C(=O)Nc1cccc(S(=O)(=O)Nc3cccnc3)c1)CC2 |
| 204 to 206 | C[C@@H]1S[C@@H](C(=O)Nc2ccc(CN3CCSCC3)cc2)Cc2cc3c(cc2C1=O)OCO3 |
| 120 to 127 | CC(C)C[C@H](NC(=O)[C@H](Cc1c[nH]cn1)NC(=O)[C@H](Cc1cccc2ccccc12)NC(=O)OCc1ccccc1)[C@@H](O)CC(=O)NN (Cbz-[1Nal]-His-[Sta]-NHNH2) |
| 61 | Cc1cc(CCCCCCCc2ccc(C#N)cc2)on1 |
| 155 to 160 | COn1cc(C(=O)NCc2ccc(Cl)cc2)c(=O)c2ccccc21 |
| 178 to 179 | O=C(c1cc(Cl)c(Cl)cc1NS(=O)(=O)c1cccc2nsnc12)N1CCCCC1 |
| 114 | NC(=O)CC[C@H]1CC[C@@H](c2ccc(F)cc2)N1S(=O)(=O)c1ccc(Cl)cc1 (racemic) |
| 147 to 149 | N#Cc1ccc(Cn2nc(-c3ccccc3O)nc2-c2ccccc2O)cc1 |
| 84 to 86 | CN(C)Cc1ccc(C2(O)CCC3(CC2)OCCO3)cc1 |
| 56.8 to 57.9 | Cc1cc(CO)cc([N+](=O)[O-])c1 |
| 99 to 102 | O=C(CCCC(Cl)c1ccc(Cl)cc1)Nc1ccccc1 (stereo unspecified) |
| 227 to 228 | Nc1nc(Nc2ccccc2)sc1C(=O)c1cccnc1 |
| 124 to 125 | CCCC(=O)c1cnc2c(OCCOC)cccc2c1Nc1ccc(F)cc1C |
| 182 | O=C(CCCC1CCCCC1)N[C@H]1CO[C@H]2[C@@H]1OC[C@@H]2NC(=O)C1CC1 |
| 185 | O=C1NC(=Cc2cccc(Cl)c2)C(=O)C1=NO |
| 175 to 177 | Nc1ccc(C#Cc2ccc(C#Cc3ccccc3)c([N+](=O)[O-])c2)cc1 |
| 196 | NC(=O)c1nccn1C1Cc2c(cccc2-c2ccccc2)C1=O (stereo unspecified) |
| 145 to 146 | O=C1Cc2c(cccc2OCCNCc2ccccc2)N1 |
| 183 to 185 | CCCCc1nc(Cl)c(C(=O)O)n1Cc1ccc2oc(-c3ccccc3-c3nnn[nH]3)c(Br)c2c1 |
| 130 to 135 | NC(=O)c1cccc(CN2C(=O)C3(COc4cc5c(cc43)OCCO5)c3ccccc32)c1 (stereo unspecified) |
| 158 to 160 | Cn1ccnc1CC1COc2ccccc2O1 (stereo unspecified) |
| 112 to 114 | O=[N+]([O-])c1ccc(OCc2ccccc2)c(C(F)(F)F)c1 |
| 122 to 123 | CC(C)C(NC(=O)OCCN1CCOCC1)C(=O)NC(Cc1ccccc1)C(O)C(Cc1ccccc1)NC(=O)C(NC(=O)OCCN1CCOCC1)C(C)C (stereo unspecified) |

| melting point [°C] | SMILES |
| --- | --- |
| 75 to 79 | CCCCNC(=O)C1CCNCC1 |
| 162 to 164 | CN(c1ccc(Cl)cc1[N+](=O)[O-])S(=O)(=O)C=Cc1ccccc1 |
| 114 | Cc1ccc2c(n1)C(C(N)=O)CCC2 (stereo unspecified) |
| 231 | O=C(O)c1ncn2c(C(F)(F)F)cc(-c3ccc(C(F)(F)F)cc3)nc12 |
| 185 to 188 | Cc1ccccc1C(=O)Nc1ccc(C(=O)N2CCCC(OCCO)c3cc(Cl)ccc32)cc1 (stereo unspecified) |
| 69 to 70 | COC(=O)Cc1ccc(OC[C@@H](C)NC[C@H](O)c2ccccc2)cc1 |
| 268 to 270 | C[C@H]1CN(c2cc3c(cc2F)c(=O)c(C(=O)O)cn3C2CC2)C[C@H]1N (relative stereo) |
| 260 | O=P1(O)Oc2c(-c3ccc(Cl)cc3)cc(Cl)cc2-c2ccc(Cl)cc21 |
| 120 to 122 | CCCc1cc2cc(O)ccc2c(Oc2ccc(/C=C/C(=O)O)cc2)c1-c1ccccc1 |
| 222 to 224 | COc1ccc(C(=O)Nc2ccc(C(C)(C)CNC(=O)c3nc4ccc(F)cc4[nH]3)cc2)cc1OC |
| 64 to 66 | O=C(Cc1ccc(F)cc1)N1C(=O)OC[C@@H]1Cc1ccccc1 |
| 59 to 61 | CC(=O)N(C#N)CCCCCCN(C#N)C(C)=O |
| 106 to 108 | Cc1noc(-c2cccc(CN3CCN(c4ccc(N)cc4)CC3)c2)n1 |
| 207 to 208 | CCOP(=O)(Cc1ccc(NC(=O)/C=C/c2cnn(Cc3ccccc3)c2-c2ccc(F)cc2)cc1)OCC |
| 130 to 131 | O=Cc1ccc2ccn(C3CCN(CCc4ccccc4F)CC3)c2c1 |
| 112 to 113 | NC(=O)N(O)CC1CCC1 |
| 122 to 124 | COC(=O)[C@H](c1ccccc1Cl)N1CCc2sc(OC(=O)C=Cc3ccccc3)cc2C1 |
| 93 to 98 | CN1CCN(c2cc(Cl)cc3c2c(=O)n(Cc2ccc(Br)cc2)c(=O)n3Cc2ccccc2)CC1 |
| 40 to 42 | O=Cc1cc(-n2nnnc2C(F)(F)F)ccc1OC(F)(F)F |
| 165 to 168 | Cc1ccc(S(=O)(=O)n2c(CCC(=O)O)cc3cc(Cl)ccc32)cc1 |
| 96 to 97 | Cc1nnc(-c2ccc3occ(-c4ccc(SC(C)C)cc4)c3c2)o1 |
| 59 to 61 | CN(C)C(=O)C1=NO[C@@H](c2ccccc2)C1 |
| 333 to 335 | O=c1c2c(CCc3ccccc3[N+](=O)[O-])n[nH]c2c2cccnc2n1-c1ccccc1 |

| SMILES | melting point [°C] |
| --- | --- |
| C=CCC1=C(C)C(OC(=O)C2C(C=CC(C)=O)C2(C)C)CC1=C (stereo unspecified) | < 50 |
| CN(C)C1(c2ccccc2)CCC(=O)CC1 | 104 to 108 |
